Patent publication US6548540B2, “Method of treating cancer using dithiocarbamate derivatives” (Charlotte-Mecklenburg Hospital Authority, priority 1998, dated 2003)
Entries after “also recorded” stand apart in the source; their conditions may differ.

What was measured:
[1] = test system: transcription factor binding to CRE (cyclic AMP response element); assay: EMSA of nuclear protein from treated M1619 cells, binding to CRE; format: cell-based, human
Description: This dose was chosen to approximate the steady state plasma and tissue concentrations of drug in human subjects on chronic therapy with this agent. Disulfiram was solubilized in dimethylsulfoxide (DMSO) so that the final concentration of DMSO was less than 0.3-0.5%. Equal volumes of DMSO were added to control experiments. Nuclear protein was harvested and electrophoretic mobility gel shift assays were performed using DNA consensus binding sequence for the cyclic-AMP responsive element (CRE) as outlined below. […] Nuclear protein was isolated and DNA binding reactions were performed as previously described in detail (See, […], et al., “Dehydroepiandrosterone and analogs inhibit DNA binding of AP-1 and airway smooth muscle proliferation,” J. Pharmacol. Exper. Ther. 285:[…] (1998); T. Kennedy, et al., “Copper-dependent inflammation and nuclear factor-κB activation by particulate air pollution,” Am. J. Respir. Cell Mol. Biol. 19:366-378 (1998)). Monolayers were washed twice in cold DPBS and equilibrated 10 minutes on ice with 0.7 ml cold cytoplasmic extraction buffer, CEB (10 mM Tris, pH 7.9, 60 mM KCl, 1 mM EDTA, 1 mM DTT) with protease inhibitors, PI (1 mM Pefabloc, 50 μg/ml antipain, 1 μg/ml leupeptin, 1 μg/ml pepstatin, 40 μg/ml bestatin, 3 μg/ml E-64 and 100 μg/ml chymostatin). The detergent Nonidet P-40 (NP-40) was added to a final concentration of 0.1% and cells were dislodged with a cell scraper. Nuclei were pelleted by centrifugation and washed with CEB/PI. […] DNA-protein binding reactions were performed with 2 μg of nuclear protein (as determined by the Pierce method) and 30-80,000 cpm of ^32P-end-labelled double-stranded DNA probe in 10 mM Tris-HCl, pH 7.5, 50 mM NaCl, 0.5 mM EDTA, 0.5 mM DTT (except where indicated), 1 mM MgCl2, 50 μg/ml poly dI-dC, and 4% glycerol. […] Gels were dried and analyzed by autoradiography at -80° C. using an image intensifier screen. […]

NF-κB = assay: EMSA of treated cells, NF-κB DNA binding; format: cell-based, human; settings: disulfiram plus copper; 12 hours; data not shown
Description: Nuclear protein was isolated and DNA binding reactions were performed as previously described in detail (See, […], et al., “Dehydroepiandrosterone and analogs inhibit DNA binding of AP-1 and airway smooth muscle proliferation,” J. Pharmacol. Exper. Ther. 285:[…] (1998); T. Kennedy, et al., “Copper-dependent inflammation and nuclear factor-κB activation by particulate air pollution,” Am. J. Respir. Cell Mol. Biol. 19:366-378 (1998)). Monolayers were washed twice in cold DPBS and equilibrated 10 minutes on ice with 0.7 ml cold cytoplasmic extraction buffer, CEB (10 mM Tris, pH 7.9, 60 mM KCl, 1 mM EDTA, 1 mM DTT) with protease inhibitors, PI (1 mM Pefabloc, 50 μg/ml antipain, 1 μg/ml leupeptin, 1 μg/ml pepstatin, 40 μg/ml bestatin, 3 μg/ml E-64 and 100 μg/ml chymostatin). The detergent Nonidet P-40 (NP-40) was added to a final concentration of 0.1% and cells were dislodged with a cell scraper. Nuclei were pelleted by centrifugation and washed with CEB/PI. […] Competition experiments were performed with 10×unlabeled wild-type oligonucleotide sequences for CRE or […] and 3'-[NT]5'), added before labeled probe. Supershift experiments were performed by incubating the binding reaction with 1 μg of supershifting antibody prior to electrophoresis. […] Gels were dried and analyzed by autoradiography at -80° C. using an image intensifier screen. […]

CCN(CC)C(=S)SSC(=S)N(CC)CC [Disulfiram, tetraethylthiuram disulfide]
DNA-binding to CRE ([1]; 5 μM disulfiram alone, treated cells): slightly reduced
transcription factor binding to CRE ([1]; 5 μM disulfiram and 1.6 μM cupric sulfate, cells treated 6, 12 or 24 hour): substantially interrupts; also recorded: eliminated
DNA binding of the upper ATF-2 containing complex II (densitometry) ([1]; disulfiram 5 μM plus CuSO4 1.6 μM, 8 hours, n=4): by half
DNA binding of NF-κB (NF-κB): inhibited
